Broadly, the Kd is the concentration at which binding is half-saturated. High values mean a looser complex, low ones a tighter complex.

The experiment has as its target T1, G3BP1 (Homo sapiens, UniProt Q13283).
T1 construct: full-length, EGFP-tagged (mEGFP), recombinant in E. coli BL21(DE3) from pET-28a, size-exclusion purified; immobilized on CM5 chip
Put plainly: SPR (Biacore 8K, CM5 chip, immobilized EGFP-G3BP1, […] Langmuir fit). It is filed as binding. (In general: In SPR one partner is held on a chip, and binding of the other changes the refractive index at the surface.)

T1 sequence (Q13283 2-466): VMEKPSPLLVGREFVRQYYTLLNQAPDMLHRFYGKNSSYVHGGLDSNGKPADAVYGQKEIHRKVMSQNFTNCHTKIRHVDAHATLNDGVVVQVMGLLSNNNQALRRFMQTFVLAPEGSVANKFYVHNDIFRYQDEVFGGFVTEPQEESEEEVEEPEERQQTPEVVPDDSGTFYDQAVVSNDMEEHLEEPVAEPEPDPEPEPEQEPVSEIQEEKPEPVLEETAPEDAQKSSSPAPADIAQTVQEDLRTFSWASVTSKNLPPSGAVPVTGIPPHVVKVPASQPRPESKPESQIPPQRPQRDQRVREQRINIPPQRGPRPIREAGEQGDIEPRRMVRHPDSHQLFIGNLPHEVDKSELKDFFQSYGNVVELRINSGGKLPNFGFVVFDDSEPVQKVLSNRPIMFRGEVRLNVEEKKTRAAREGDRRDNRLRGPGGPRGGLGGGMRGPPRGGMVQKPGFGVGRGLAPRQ

For the molecule `CC(=NNC(=O)c1ccccc1O)c1ccccc1O` [C108], the Kd was found to be 2.71 µM. That is a single-digit micromolar value.

With `C=C(C)[C@@H]1CC=C(C=O)CC1` [perillaldehyde], the equilibrium dissociation constant (Kd) worked out at 5.49 µM. Compared with the last molecule, the Kd is about 2-fold higher.

The values above are taken from paper PMC11984871, “Perillaldehyde Improves Parkinson‐Like Deficits by Targeting G3BP Mediated Stress Granule Assembly in Preclinical Models” (Advanced Science, 2025).
